Source: patent publication US20250213583A1, “ANTIVIRAL PHARMACEUTICAL COMPOSITION AND USE THEREOF” (priority 2022, published 2025)

What was measured:
[1] = system: interferon signaling and pro-inflammatory cytokine genes (Ifnβ, Ifit1, Ifit2, Il-6, Tnfα); assay: Inflammatory cytokine gene expression (mRNAseq DEG, RT-qPCR) in SARS-CoV-2 B.1-infected hACE2-A549 cells; assay type: cell-based, human
[2] = system: Nrf2 signaling pathway (HMOX1, Nqo1); assay: Nrf2 signaling pathway gene expression (mRNAseq DEG, RT-qPCR) in SARS-CoV-2 B.1-infected hACE2-A549 cells; assay type: cell-based, human; conditions: SARS-CoV-2 B.1-infected hACE2-A549, MOI 0.1, 30 μM, 24 hpi
[3] = system: SARS-CoV-2 B.1 nucleocapsid protein; assay: Western blot of nucleocapsid protein, hACE2-A549 cells infected with SARS-CoV-2 B.1; assay type: cell-based; conditions: hACE2-A549, MOI=0.1, 24 hpi
Procedure: (§1) Vero E6 cells, Calu-3 cells (1×10^6 cells per well), and hACE2-A549 cells (0.5×10^6 cells per well) were seeded in 6-well plates and placed in an incubator at 37° C. and 5% CO2 conditions overnight. When the cells reached approximately 80% density, they were washed twice with pre-heated phosphate-buffered saline (PBS; Gibco™ cat #70011069), 1 mL of 2% FBS medium was added, and the cells were infected at the following multiplicity of infection [MOI] values at 37° C. for two hours (MOI=0.01 for Vero E6 cells, MOI=0.1 for hACE2-A549 cells, and MOI=1 for Calu-3 cells). The infected plate was shaken every 15 minutes to efficiently distribute the infectious material. After two hours of virus adsorption, Example Compound 1 was administered. Next, the supernatants and cells were harvested at 24 hours post infection (hpi).
(§2) Cells were lysed using a radioimmunoprecipitation assay (RIPA) buffer (Cell Signaling Technology® cat #9806) and a protease/phosphatase inhibitor mixture (Cell Signaling Technology®, cat #5872). […]
(§3) The gels were transblotted using polyvinylidene difluoride (PVDF) membranes (Millipore Ltd., cat #617203) at 30 V for 90 minutes. […] The antibody-treated PVDF membrane was detected with a horseradish peroxidase (HRP) substrate (EMD Millipore Corporation) using VILBER (FUSION Solo S instrument). […]

Seoul virus (SEOV) = assay: microbe, parasite or virus in culture; assay type: cell-based
SARS-CoV-2 B.1 [4] = assay: Plaque assay, hACE2-A549 cells infected with SARS-CoV-2 B.1; assay type: cell-based; conditions: hACE2-A549, MOI=0.1, 30 μM, 24 hpi
[5] = system: SARS-CoV-2 B.1.617.2 (delta); assay: microbe, parasite or virus in culture; assay type: cell-based
MFN1 and MFN2 = assay: Western blot of mitochondrial fusion factors, SARS-CoV-2 B.1-infected Calu-3 cells; assay type: cell-based; conditions: SARS-CoV-2 B.1-infected Calu-3, 24 hpi
[6] = system: p-MLKL and cleaved caspase-3; assay: Western blot of cell death factors, SARS-CoV-2 B.1-infected hACE2-A549 cells; assay type: cell-based, human; conditions: SARS-CoV-2 B.1-infected hACE2-A549, MOI 0.1, 30 μM, 48 hpi
Procedure: Cells were lysed using a radioimmunoprecipitation assay (RIPA) buffer (Cell Signaling Technology® cat #9806) and a protease/phosphatase inhibitor mixture (Cell Signaling Technology®, cat #5872). The lysed cells were electrophoresed on 12% and 15% acrylamide gels using sodium dodecyl sulfate polyacrylamide gels at 80 to 120 V for 90 minutes.
as §3, with “minutes. Proteins were transferred to a PVDF membrane and blocked at room temperature for one hour using Tris-buffered saline (TBS) and 0.1% Tween-20 (TBS-T, Bio-Rad Laboratories, Inc., cat #1706531) and 5% skim milk.” for “minutes.”

[7] = system: SARS-CoV-2 BA.1 (omicron); assay: microbe, parasite or virus in culture; assay type: cell-based
Zika virus (ZIKV) = assay: microbe, parasite or virus in culture; assay type: cell-based
SARS-CoV-2 B.1 [8] = assay: RT-qPCR of viral RNA, Vero E6 cells infected with SARS-CoV-2 B.1; assay type: cell-based
SARS-CoV-2 B.1 [9] = assay: Plaque assay, Vero E6 cells infected with SARS-CoV-2 B.1; assay type: cell-based; conditions: Vero E6, MOI=0.01, 30 μM, 24 hpi
hACE2-A549 cells = assay: Mitochondrial membrane potential by JC-1 staining, SARS-CoV-2 B.1-infected hACE2-A549 cells; assay type: cell-based, human; conditions: SARS-CoV-2 B.1-infected hACE2-A549, 30 μM, 24 hpi
Procedure: JC-1 is a marker for mitochondrial membrane potential, and appears as a green fluorescent monomer (˜529 nm) at depolarization and abnormal mitochondrial membrane potential. JC-1 was diluted to 10 mM, and the JC-1 solution was treated at a final concentration of 2 μM in serum-free DMEM for 20 minutes at 37° C. and 5% CO2. Control cells were treated with H2O2 for 20 minutes. After JC-1 staining, nuclei were stained using Hoechst 33342 (Thermo Fisher Scientific, cat #62249) for five minutes at room temperature. After each staining step, cells were washed three times with pre-heated PBS and mounted on a glass slide. All steps were carried out with light blocked.
To evaluate mitochondrial homeostasis by treatment with Example Compound 1, hACE2-A549 cells and Calu-3 cells were infected with SARS-CoV-2 B.1 virus at MOI=0.1 and 1. After two hours, the cells were treated with Example Compound 1 at 30 μM, and JC-1 and MitoTracker staining of the hACE2A-549 cells and Calu-3 cells was performed at 24 hpi.

SARS-CoV-2 B.1 [10] = assay: RT-qPCR of viral RNA, hACE2-A549 cells infected with SARS-CoV-2 B.1; assay type: cell-based; conditions: for EC50: read-out: EC50 against the SARS-CoV-2 B.1 virus; for inhibited the replication of SARS-CoV-2 B.1 (RT-qPCR): 24 hpi
[11] = system: SARS-CoV-2 B.1 nucleocapsid protein; assay: Western blot of nucleocapsid protein, Vero E6 cells infected with SARS-CoV-2 B.1; assay type: cell-based; conditions: Vero E6, MOI=0.01, 30, 20, 10, 1 μM, 24 hpi
Procedure: as §1, §2, §3

Calu-3 cells = assay: Mitochondrial membrane potential by MitoTracker Orange CMTMRos and IFA, SARS-CoV-2 B.1-infected Calu-3 cells; assay type: cell-based; conditions: SARS-CoV-2 B.1-infected Calu-3, 30 μM, 24 hpi
Procedure: Mitochondrial membrane potential probes MitoTracker™ Orange CMTMRos (Invitrogen™ cat #M7510) and JC-1 (Thermo Fisher Scientific, cat #T3168) were used to measure the recovery of mitochondrial membrane potential. Mitotracker™MOrange CMTMRos is a fluorescent dye that stains mitochondria in living cells and can be observed under a confocal microscope at a wavelength of 554 to 576 nm.
Calu-3 cells were seeded on a 4-chamber slide, infected with a virus and treated with Example Compound 1, and then treated with Mitotracker™MOrange CMTMRos at a final concentration of 500 nM in serum-free DMEM for 20 minutes at 37° C. and 5% CO2. Control cells were treated with carbonyl cyanide-p-trifluoromethoxyphenylhydrazone (FCCP) for 20 minutes. All steps were carried out with light blocked, the 4-chamber slide was washed three times with pre-heated PBS, and an immunofluorescence analysis (IFA) was performed.
To evaluate mitochondrial homeostasis by treatment with Example Compound 1, hACE2-A549 cells and Calu-3 cells were infected with SARS-CoV-2 B.1 virus at MOI=0.1 and 1. […]
In addition, after infecting the Calu-3 cells with SARS-CoV-2, the membrane potential of the infected cells was measured using MitoTracker™ Orange CMTMRos and IFA, and the results are shown in FIG. 5C.

[12] = system: mitochondrial OXPHOS complexes I, II, III, IV, and V; assay: Mitochondrial OXPHOS complex expression (mRNAseq DEG) in SARS-CoV-2 B.1-infected hACE2-A549 cells; assay type: cell-based, human; conditions: SARS-CoV-2 B.1-infected hACE2-A549, MOI 0.1, 30 μM, 24 hpi
vaccinia virus (VACV) = assay: microbe, parasite or virus in culture; assay type: cell-based
[13] = SARS-CoV-2 B.1-infected hACE2-A549, 30 μM and 1 μM
[14] = Severe acute respiratory syndrome coronavirus 2

SMILES: O=S1(=O)CCN(Cc2cc(NC3CCOCC3)c3[nH]c(-c4ccccc4)cc3c2)CC1 [Example Compound 1, 5-[(1,1-dioxido-4-thiomorpholinyl)methyl]-2-phenyl-N-(tetrahydro-2H-pyran-4-yl)-1H-indol-7-amine]
- expression of the interferon signaling and pro-inflammatory cytokine genes (mRNAseq, DEG) ([1]; SARS-CoV-2 B.1-infected hACE2-A549): inhibited the expression
- expression of interferon-related genes Ifnβ, Ifit1, and Ifit2 (RT-qPCR) [1, 13]: significantly down-regulated
- induction of pro-inflammatory cytokine genes Il-6 and Tnfα (RT-qPCR) [1, 13]: reduced the induction
- Nrf2 signaling pathway (mRNAseq, DEG) [2]: up-regulated
- gene expression of HMOX1 and Nqo1 (RT-qPCR), compared to untreated infected cells [2]: significant increase
- expression of SARS-CoV-2 B.1 nucleocapsid protein (Western blot) [3]: decreased in a dose-dependency
- EC50 (Seoul virus (SEOV); Orthohantavirus seoulense, Vero C1008, read-out: EC50, SEOV): 1900 nM
- reduced the expression level of SEOV (RT-qPCR) (Seoul virus (SEOV); Vero E6, 24 hpi): about 3 times
- infectious particles of SARS-CoV-2 B.1 reduced (plaque assay) (SARS-CoV-2 B.1 [4]): 100 fold
- antiviral effect against SARS-CoV-2 B.1.617.2 (delta) (RT-qPCR) [5]: about 1000 fold
- EC50 [5, 14]: 1200 nM
- MFN1 and MFN2 protein level (Western blot) (MFN1 and MFN2): overexpression was suppressed
- necrosis-related p-MLKL protein and cell death-related cCaspase 3 protein (Western blot) [6]: inhibited
- antiviral effect against SARS-CoV-2 BA.1 (omicron) (RT-qPCR) [7]: ~30 fold
- EC50 [7, 14]: 1100 nM
- reduced the expression level of ZIKV (RT-qPCR) (Zika virus (ZIKV); Vero E6): about 16 times
- EC50 (Zika virus (ZIKV); Zika virus, Vero C1008, Vero E6, 48 hpi): 7.8 µM
- EC50 (SARS-CoV-2 B.1 [8]; Severe acute respiratory syndrome coronavirus 2, Vero C1008, Vero E6, MOI=0.01, 24 hpi, read-out: EC50 against SARS-CoV-2 B.1): 1100 nM
- SARS-CoV-2 B.1 virus replication inhibited compared to untreated cells (RT-qPCR) (SARS-CoV-2 B.1 [8]; Vero E6, MOI=0.01, 30 μM, 24 hpi): up to 1,000 times
- infectious particles of SARS-CoV-2 B.1 reduced compared to untreated cells (plaque assay) (SARS-CoV-2 B.1 [9]): 1,000 times
- mitochondrial membrane potential (JC-1 Aggregate, RED) intensity (hACE2-A549 cells): intensity level similar to that of the uninfected cells
- EC50 (SARS-CoV-2 B.1 [10]; Severe acute respiratory syndrome coronavirus 2, hACE2-A549, MOI=0.01, 24 hpi): 1.4 µM
- EC50 (SARS-CoV-2 B.1 [10]; Severe acute respiratory syndrome coronavirus 2, hACE2-A549, MOI=0.1, 24 hpi): 7 µM
- inhibited the replication of SARS-CoV-2 B.1 (RT-qPCR) (SARS-CoV-2 B.1 [10]; hACE2-A549, MOI=0.01, 30 µM): about 100 times
- inhibited the replication of SARS-CoV-2 B.1 (RT-qPCR) (SARS-CoV-2 B.1 [10]; hACE2-A549, MOI=0.1, 30 μM): about 100 times
- expression of SARS-CoV-2 B.1 nucleocapsid protein (Western blot) [11]: decreased in a dose-dependency
- SARS-CoV-2 nucleocapsid protein (IFA) (Calu-3 cells): significant decrease
- mitochondrial membrane potential, MitoTracker accumulation (Calu-3 cells): accumulation of MitoTracker
- expression of mitochondrial OXPHOS complexes I to V (mRNAseq, DEG) [12]: up-regulated expression of all five OXPHOS complexes
- EC50 (vaccinia virus (VACV); Orthopoxvirus vaccinia, Vero C1008, read-out: EC50, VACV): 6.6 µM
- reduced the expression level of VACV (RT-qPCR) (vaccinia virus (VACV); Vero E6, 24 hpi): about 15 times
